Results published in patent US7432276B2, “ABCA1 elevating compounds” (CV Therapeutics, Inc., priority 2005, dated 2008).

What follows are molecules tested on ABCA1 mRNA (assay: ABCA1 mRNA induction in THP-1 cells, QuantiGene branched DNA assay). Settings: 10 μM test compound, 18-20 hours.
Assay type: cell-based
Method: Modulation of expression of ABCA1 mRNA levels by the compounds of the invention was determined in the following assays.
Induction of ABC1 in THP-1 cells, was measured using QuantiGene® branched DNA assay as per manufacturer's instructions. Cultures of THP-1 were grown to subconfluence in DMEM/10% FBS before replacement with DMEM/BSA and 10 and 3 μM concentrations of the test compounds in DMSO for 18-20 hours. After treatment of cells with compounds, the cells were lysed with lysis buffer at 37° C. for 20 minutes. The cell lysate and ABCA1 specific probe (Genospectra, Inc., Fremont, Calif.) mix were added to the 96 well capture plate and hybridized at 53° C. for 16-18 hours. The signal was amplified using the amplifier and label probes provided with the QuantiGene® assay followed by addition of a luminescent alkaline phosphatase substrate, dioxitane. Luminescence was quantified in Victor V plate reader.
Step 1 • Cells are lysed to release mRNA in the presence of target probes. Target mRNA from lysed cells was then captured by hybridization and transferred to the Capture Plate.
Step 2 • Signal amplification was performed by hybridization of the bDNA Amplifier and Label Probe.
Step 3 • Addition of chemiluminescence substrate yielded a QuantiGene® signal proportional to the amount of mRNA present in the sample.
Table 1 presents the relative fold increase in ABCA1 expression over DMSO for various compounds of the invention when tested at a concentration of […].

Compound	ABCA1 Induction Fold Increase over DMSO Vehicle [FOLD INCREASE]
CC1(C)c2cc(C(O)(C(F)(F)F)C(F)(F)F)ccc2NC2c3cccc(F)c3OCC21 (centres unmarked) [Number 51, 1,1,1,3,3,3-hexafluoro-2-(4-fluoro-7,7-dimethyl(7,12,12a,6a-tetrahydrochromano[4,3-b]quinolin-9-yl))propan-2-ol]	7.8
COc1cccc2c1[C@H]1Nc3ccc(-c4ccc(C(F)(F)F)cc4)cc3C(C)(C)[C@@H]1CO2 [Number 93, (12aS,6aS)-1-methoxy-7,7-dimethyl-9-[4-(trifluoromethyl)phenyl]-7,12,12a,6a-tetrahydrochromano[4,3-b]quinoline]	6.8
CCS(=O)(=O)N1CCN(C(=O)c2cnn(-c3ccc4c(c3)C(C)(C)[C@H]3COc5cccc(F)c5[C@H]3N4)c2C)CC1 [Number 144, 1-((6aR,12aS)-6a,7,12,12a-tetrahydro-1-fluoro-7,7-dimethyl-6H-chromeno[4,3-b]quinolin-9-yl)-5-methyl-1H-pyrazole-4-((4-ethanesulfonylpiperazin-1-yl)methanone)]	2.1
CCOc1cccc2c1OCC1C2Nc2ccc(C(N)=O)cc2C1(C)C (centres unmarked) [Number 30, 4-ethoxy-7,7-dimethyl-7,12,12a,6a-tetrahydrochromano[4,3-b]quinoline-9-carboxamide]	5.3
COc1cccc2c1[C@H]1Nc3ccc(-c4ccc(CCC(=O)O)cc4)cc3C(C)(C)[C@H]1CO2 [Number 114, 3-[4-((12aS,6aR)-1-methoxy-7,7-dimethyl-7,12,12a,6a-tetrahydrochromano[4,3-b]quinolin-9-yl)phenyl]propanoic acid]	2.7
COc1cccc2c1[C@H]1Nc3ccc(C(=O)N4CCN(C(=O)OC(C)(C)C)CC4)cc3C(C)(C)[C@H]1CO2 [Number 125, ((6aR,12aS)-6a,7,12,12a-tetrahydro-1-methoxy-7,7-dimethyl-6H-chromeno[4,3-b]quinolin-9-yl)(4-tert-butyl-carboxylate-piperazin-1-yl)methanone]	4.1
COc1ccccc1-c1ccc2c(c1)C(C)(C)C1COc3c(OC)cc(Cl)cc3C1N2 (centres unmarked) [Number 100, 1-(2-chloro-4-methoxy-7,7-dimethyl(7,12,12a,6a-tetrahydrochromano[4,3-b]quinolin-9-yl))-2-methoxybenzene]	3.0
COc1cccc2c1[C@H]1Nc3ccc(-c4cc[nH]n4)cc3C(C)(C)[C@H]1CO2 [Number 111, (12aS,6aR)-1-methoxy-7,7-dimethyl-9-pyrazol-3-yl-7,12,12a,6a-tetrahydrochromano[4,3-b]quinoline]	4.7
COc1cccc2c1OC[C@@H]1[C@H]2Nc2ccc(OC(F)(F)F)cc2C1(C)C [Number 52, ((6aS,12aR)-4-methoxy-7,7-dimethyl(7,12,12a,6a-tetrahydrochromano[4,3-b]quinolin-9-yloxy))trifluoromethane]	9.5
COc1cccc2c1OCC1C2Nc2ccc(C(N)=S)cc2C1(C)C (centres unmarked) [Number 58, amino(4-methoxy-7,7-dimethyl(7,12,12a,6a-tetrahydrochromano[4,3-b]quinolin-9-yl))methane-1-thione]	6.2
COc1cccc2c1OCC1C2Nc2ccc(C(N)=O)cc2C1(C)C (centres unmarked) [Number 23, 4-methoxy-7,7-dimethyl-7,12,12a,6a-tetrahydrochromano[4,3-b]quinoline-9-carboxamide]	6.1
CC1(C)c2cc(C(N)=O)ccc2NC2c3cc(Br)ccc3OCC21 (centres unmarked) [Number 5, 2-bromo-7,7-dimethyl-7,12,12a,6a-tetrahydrochromano[4,3-b]quinoline-9-carboxamide]	3.5
COc1cccc2c1[C@H]1Nc3ccc(-c4ccc(C(=O)O)cc4)cc3C(C)(C)[C@H]1CO2 [Number 106, 4-((12aS,6aR)-1-methoxy-7,7-dimethyl-7,12,12a,6a-tetrahydrochromano[4,3-b]quinolin-9-yl)benzoic acid]	4.8
CC1(C)c2cc(C(O)(C(F)(F)F)C(F)(F)F)ccc2NC2c3cc(OC(F)(F)F)ccc3OCC21 (centres unmarked) [Number 8, 2-[7,7-dimethyl-2-(trifluoromethoxy)(7,12,12a,6a-tetrahydrochromano[4,3-b]quinolin-9-yl)]-1,1,1,3,3,3-hexafluoropropan-2-ol]	3.0
COc1cc(Br)cc2c1OC[C@@H]1[C@H]2Nc2ccc(C(O)(C(F)(F)F)C(F)(F)F)cc2C1(C)C [Number 65, 2-((6aS,12aR)-2-bromo-4-methoxy-7,7-dimethyl(7,12,12a,6a-tetrahydrochromano[4,3-b]quinolin-9-yl))-1,1,1,3,3,3-hexafluoropropan-2-ol]	3.2
CC1(C)c2cc(-c3nc(C(=O)N4CCS(=O)(=O)CC4)co3)ccc2N[C@@H]2c3c(F)cccc3OC[C@@H]21 [Number 143, 2-((6aR,12aS)-1-fluoro-6a,7,12,12a-tetrahydro-7,7-dimethyl-6H-chromeno[4,3-b]quinolin-9-yl)oxazole-(4-(1,1-dione-1,4-thiazaperhydroin-yl)methanone)]	6.1
COc1cccc2c1[C@H]1Nc3ccc(Br)cc3C(C)(C)[C@H]1CO2 [Number 85, (12aS,6aR)-9-bromo-1-methoxy-7,7-dimethyl-7,12,12a,6a-tetrahydrochromano[4,3-b]quinoline]	8.0
COc1cccc2c1[C@H]1Nc3ccc(-c4ccc(F)cc4)cc3C(C)(C)[C@H]1CO2 [Number 109, (12aS,6aR)-9-(4-fluorophenyl)-1-methoxy-7,7-dimethyl-7,12,12a,6a-tetrahydrochromano[4,3-b]quinoline]	4.1
COc1cccc2c1[C@H]1Nc3ccc(-c4ccc(C(N)=O)cc4)cc3C(C)(C)[C@H]1CO2 [Number 108, 4-((12aS,6aR)-1-methoxy-7,7-dimethyl-7,12,12a,6a-tetrahydrochromano[4,3-b]quinolin-9-yl)benzamide]	4.7

Same assay, conditions: Homo sapiens, 10 μM test compound, 18-20 hours, read-out: ABCA1 Induction Fold Increase over DMSO Vehicle

Compound	fold induction at 10 µM
CCOP(=O)(Cc1ccc2c(c1)C(C)(C)[C@H]1COc3c(OC)cc(-c4cn[nH]c4)cc3[C@H]1N2)OCC [Number 181, diethyl((6aR,12aS)-6a,7,12,12a-tetrahydro-4-methoxy-7,7-dimethyl-2-(1H-pyrazol-4-yl)-6H-chromeno[4,3-b]quinolin-9-yl)methylphosphonate]	4.9
CC1(C)c2cc(C(=O)N3CCNCC3)ccc2N[C@@H]2c3c(F)cccc3OC[C@@H]21 [Number 130, ((6aR,12aS)-1-fluoro-6a,7,12,12a-tetrahydro-7,7-dimethyl-6H-chromeno[4,3-b]quinolin-9-yl)(piperazin-1-yl)methanone]	4.2
COC(=O)CCN1c2ccccc2C(C)(C)[C@@H]2COc3cccc(OC)c3[C@@H]21 [Number 170, methyl 3-((6aS,12aR)-6a,7-dihydro-1-methoxy-7,7-dimethyl-6H-chromeno[4,3-b]quinolin-12(12aH)-yl)propanoate]	2.3
COc1cccc2c1OC[C@H]1[C@@H]2Nc2ccc(-c3nc(C(=O)O)co3)cc2C1(C)C [Number 146, 2-((6aR,12aS)-6a,7,12,12a-tetrahydro-4-methoxy-7,7-dimethyl-6H-chromeno[4,3-b]quinolin-9-yl)oxazole-4-carboxylic acid]	8.2
CCCCN1c2ccccc2C(C)(C)[C@H]2COc3cccc(OC)c3[C@H]21 [Number 174, (6aR,12aS)-12-butyl-6a,7,12,12a-tetrahydro-1-methoxy-7,7-dimethyl-6H-chromeno[4,3-b]quinoline]	1.9
COc1cc(Br)cc2c1OC[C@@H]1[C@@H]2Nc2ccc(-c3cnco3)cc2C1(C)C [Number 150, (6aS,12aS)-2-bromo-6a,7,12,12a-tetrahydro-4-methoxy-7,7-dimethyl-9-(oxazol-5-yl)-6H-chromeno[4,3-b]quinoline]	12.5
CCCN1c2ccccc2C(C)(C)[C@H]2COc3cccc(OC)c3[C@H]21 [Number 172, (6aR,12aS)-12-propyl-6a,7,12,12a-tetrahydro-1-methoxy-7,7-dimethyl-6H-chromeno[4,3-b]quinoline]	1.7
CCCCN1c2ccccc2C(C)(C)[C@@H]2COc3cccc(OC)c3[C@H]21 [Number 175, (6aS,12aS)-12-butyl-6a,7,12,12a-tetrahydro-1-methoxy-7,7-dimethyl-6H-chromeno[4,3-b]quinoline]	1.5
COc1cccc2c1[C@@H]1[C@@H](CO2)C(C)(C)c2ccccc2N1C1CCCCC1 [Number 167, (6aS,12aS)-12-cyclohexyl-6a,7,12,12a-tetrahydro-1-methoxy-7,7-dimethyl-6H-chromeno[4,3-b]quinoline]	7.9
CCOP(=O)(Cc1ccc2c(c1)C(C)(C)C1COc3cccc(OC)c3C1N2)OCC (centres unmarked) [Number 180, diethyl(6a,7,12,12a-tetrahydro-1-methoxy-7,7-dimethyl-6H-chromeno[4,3-b]quinolin-9-yl)methylphosphonate]	2.2
